Experimental data: ChEMBL document CHEMBL4482318, “Sepiapterin reductase inhibitors” (2018)
Active and inactive are the calls of the source.

Tests used:
Assay type in all cases: functional, organism-based
Rattus norvegicus [1] = test: Analgesic activity in rat model of spared nerve injury-induced neuropathic pain assessed as increase in paw withdrawal threshold at 10 mg/kg, po administered via gavage once daily for 3 days by Von frey filament test
Rattus norvegicus [2] = test: Analgesic activity in rat model of chronic constriction injury-induced neuropathic pain assessed as increase in paw withdrawal threshold at 9.5 mg/kg, po administered via gavage once daily for 3 days by Von frey filament test
Rattus norvegicus [3] = test: Analgesic activity in rat model of spared nerve injury-induced neuropathic pain assessed as increase in paw withdrawal threshold at 15 mg/kg, po administered via gavage once daily for 3 days by Von frey filament test
Rattus norvegicus [4] = test: Analgesic activity in rat model of chronic constriction injury-induced neuropathic pain assessed as increase in paw withdrawal threshold at 10 mg/kg, po administered via gavage once daily for 3 days by Von frey filament test
Rattus norvegicus [5] = test: Analgesic activity in rat model of spared nerve injury-induced neuropathic pain assessed as increase in paw withdrawal threshold at 20 mg/kg, po administered via gavage once daily for 3 days by Von frey filament test

In the case of `Cc1c(C(=O)N2CCN(C3CCC3(F)F)CC2)nnn1-c1nn2cccc2c(=O)[nH]1` (configuration not stated), the Activity (Rattus norvegicus [1]) is reported as “Active”.
For `Cc1c(C(=O)N2CCC2c2ccc(F)nc2)cnn1-c1nn2cccc2c(=O)[nH]1` (configuration not stated), the Activity (Rattus norvegicus [1]) was “Active”.
`Cc1c(C(=O)N2CCN(C3CC(F)(F)C3)CC2)cnn1-c1nn2cccc2c(=O)[nH]1` was tested, and the Activity (Rattus norvegicus [2]) was “Active”.
In the case of `Cc1c(C(=O)N2CCN(C3CC(F)(F)C3)CC2)nnn1-c1nn2cccc2c(=O)[nH]1`, the Activity (Rattus norvegicus [2]) is reported as “Active”.
With `Cc1c(C(=O)N2CC3CC(C2)N3C2CC2)cnn1-c1nn2cccc2c(=O)[nH]1` the Activity (Rattus norvegicus [3]) was “Active”.
With `Cc1c(C(=O)N2CC(c3ccnc(F)c3)C2)cnn1-c1nn2cccc2c(=O)[nH]1` the Activity (Rattus norvegicus [4]) was “Active”.
With `Cc1c(C(=O)N2CCC(c3nc(C#N)co3)CC2)cnn1-c1nn2cccc2c(=O)[nH]1` the Activity (Rattus norvegicus [5]) was “Active”.
